Laboratory results taken from patent US20200405603A1, “COMPOSITIONS AND METHODS FOR TREATING SKIN CONDITIONS USING INFRARED LIGHT AND RESORCINOLS” (Johnson & Johnson Consumer Inc., priority 2019, published 2020).

Tested on: lamin b1 (LMNB1) gene expression
Experiment: lamin B1 (LMNB1) gene expression assay (qPCR) in skin equivalents, with TNF-α to simulate photoaged skin
Type: cell-based, human
Protocol: The effects of IR light, hexyl resorcinol (HR), and combinations thereof on lamin B1 gene expression in the presence of TNF-α was tested as follows. TNF-α is known to play a primary role in the inflammation process upon ultraviolet (UV) irradiation and is stimulated by UVB.
Three human full-thickness skin equivalents (MatTek, Ashland, Mass.) were used for each treatment. The skin equivalents were treated with one of the following: (i) 100 ng/ml TNF-α in a medium (1× phenol-red free Hank's buffered saline solution (HBSS), (ii) a placebo formulation, (iii) a hexyl resorcinol formulation containing 0.5 weight percent hexyl resorcinol (HR) in the placebo formulation, (iv) infrared (IR) light (wavelength 830 nm) at 0.5 mW/cm^2 for 10 min (i.e. fluence at 0.3 J/cm^2), or (iv) combinations of these. TNF-α was used to simulate photoaged skin.
The placebo formulation contained the ingredients in Table 1. The hexyl resorcinol formulation contained the same ingredients plus 0.5 wt % hexyl resorcinol.
For the combination treatments, the formulations were first topically applied to the skin equivalents and left to stand for two hours. Next, the skin equivalents were irradiated with the IR light. Then the skin equivalents were incubated with or without 100 ng/ml TNF-α in the phenol-red-free medium for 24 hours.
Afterwards, the skin equivalents were collected in RNAlater solution (ThermoFisher Scientific, Bridgewater, N.J., USA) for RNA purification. The total RNAs were purified using a Qiagen RNeasy kit (Valencia, Calif., USA) following the manufacturer's instructions. RNA concentration was assessed using a Nanodrop 2000 spectrophotometer (ThermoFisher Scientific, Bridgewater, N.J., USA). Complementary DNA (cDNA) was performed using a High Capacity cDNA kit (ThermoFisher Scientific, Bridgewater, N.J., USA). TaqMan® gene expression assays for lamin b1 (LMNB1) and TATA-Box Binding Protein (TBP) and TaqMan® gene expression master mix from ThermoFisher Scientific (Bridgewater, N.J., USA) were used. Realtime polymerase chain reactions (qPCRs) of each treatment were performed using 5 ul of the 15 ul mixture of cDNAs pooled from three equivalent tissue replicates (i.e. mixing 5 ul of cDNA from each equivalent replicate). qPCRs were performed using a QuantStudio™ 7 Flex System (ThermoFisher Scientific, Bridgewater, N.J., USA). The RQ (relative quantitation) was calculated using the formula 2^-ΔΔCt.
The effects of red light (wavelength 640 nm, 0.3 J/cm^2) and HR on lamin B1 gene expression in the presence of TNF-α was tested using the same method as Example 1.

[1] = Example 2, treatment alone (no light, no other treatment)
[2] = treatment alone (no light, no other treatment), human full-thickness skin equivalents

Compound	change in lamin B1 gene expression (combination with red light)	Induced LMNB1 (RQ) [1] [RQ]	Induced LMNB1 vs Untreated Control (RQ fold changes) [1] [RQ fold changes]	Difference of Induced LMNB1 vs Untreated Control (RQ fold changes) [2] [RQ fold changes]	LMNB1 Induction (RQ) [2] [RQ]
CCCCCCc1ccc(O)cc1O [hexyl resorcinol, 4-hexylresorcinol]	no substantial change	–	–	–	–
TNF-α	–	1.55	0.55	0.55	1.55
